Columns and labels:
Experiment in all cases: Dip disk (disk-diffusion) assay, disks loaded with 0.05 ml
Type in all cases: cell-based
[1] = tested on: Escherichia coli UC 51 (EC); conditions: Escherichia coli, UC51; 0.1 mcg/ml, 0.05 ml per disk; read-out: Growth Inhibition zone, EC
Method: (§1) The effectiveness of the subject compounds on bacteria were obtained by performing a dip disk assay. The antibacterial activity of the compounds was determined by the disk-diffusion method. Paper disks (12.7 mm) were loaded with 0.05 ml of drug solution prepared at a concentration of 0.1 mcg/ml; the disks were allowed to air dry. They were then applied to the surface of microorganism-seeded agar assay trays, which contained the bacterial strain Pseudomonas aeruginosa UC 95 (PA), Escherichia coli UC 51 (EC), Klebsiella pneumoniae UC 57 (KP), or Staphylococcus aureus UC 80 (SA). The assay trays were incubated overnight under aerobic condition to allow for the growth of the organisms. Zones of growth inhibition due to the action of the antibiotic were then measured to the nearest millimeter.
(§2) The effectiveness of additional compounds 5-9, (5-7 are Formula IAa compounds and 8 and 9 are Formula IAb compounds) on bacteria were obtained by performing a dip disk assay as described above. The antibacterial activity of the compounds was determined by the disk-diffusion method where the disks were loaded with 0.05 ml of drug solution prepared at a concentration of 1.0 mcg/ml; the disks were allowed to air dry.

[2] = tested on: Pseudomonas aeruginosa UC 95 (PA); conditions: Pseudomonas aeruginosa, UC95; 0.1 mcg/ml, 0.05 ml per disk; read-out: Growth Inhibition zone, PA
Method: as §1, §2

[3] = tested on: Staphylococcus aureus UC 80 (SA); conditions: Staphylococcus aureus, UC80, read-out: Growth Inhibition zone, SA
Method: as §1, §2

Compound: O=C(O)c1cn(C2CC2)c2cc(N3CCNCC3)c(F)cc2c1=O [Ciprofloxacin, reference compound]
- zone of inhibition at 0.1 µg/mL [1]: 29 mm
- zone of inhibition at 0.1 µg/mL [2]: 38 mm
- zone of inhibition at 0.1 µg/mL [3]: 27 mm

From US5262417A, “Antibacterial quinolone compounds” (The Upjohn Company, priority 1991, dated 1993)
